These results are taken from US11718613B2, “N-(phenylsulfonyl)benzamides and related compounds as Bcl-2 inhibitors” (THE REGENTS OF THE UNIVERSITY OF MICHIGAN, priority 2016, dated 2023).

One series relates to RS4;11 cells. Put plainly: RS4;11 cell viability (CCK-8) assay. The following applies: 4 days, read-out: RS4;11 IC50 (Bcl-2 dependent). The series is classed as cell-based, human. As to the method:
RS4;11 cells were obtained from American Type Culture Collection (ATCC). They were used within three months of thawing fresh vials. Cells were maintained in the recommended culture medium with 10% FBS at 37° C. and an atmosphere of 5% CO2.
The effect of representative Compounds of the Disclosure on cell viability was determined using Cell Counting Kit-8 (CCK-8) assay (Dojindo, Rockville, Md.) according to the manufacturer's instructions. 200 μL of a RS4;11 cell suspension (10000 cells/well) in culture medium were seeded into 96-well plates and cultured overnight. Each tested compound was serially diluted in culture medium, and 20 μL of the compound dilution was added to the corresponding well of the cell plate. After the addition of the tested compound, the cells were incubated at 37° C. in an atmosphere of 5% CO2 for 4 days. At the end of 4 days, 10 μL of CCK-8 solution was added to each well of the plate and incubated for 1-4 hours. The plates were read at 450 nm on the microplate spectrophotometer (Epoch2, BioTek). The readings were normalized to the vehicle cells, and the IC50 was calculated by nonlinear regression analysis using GraphPad Prism 5 software.

For series [1], the system named is RS4;11 leukemia xenograft. The experiment in a line: RS4;11 leukemia xenograft model. The format is in vivo. Particulars: oral gavage, nude mice. As to the method: The antitumor activity of Cpd. No. 6 (compound 6) was also studied in the RS4;11 leukemia xenograft model. Human RS4;11 tumor cells were injected into nude mice and treatment started on day 11 when the tumor size reached approximately 100 mm^3. Cpd. No. 6 was administered via oral gavage at indicated doses and schedules. Cpd.

A further series deals with Bcl-2 (Homo sapiens (Human), UniProt P10415). The experiment in a line: Fluorescence polarization competitive binding assay, Bcl-2. The following applies: FP competition with Flu-BIM probe; read-out: Inhibitory activity IC50 Bcl-2.
Bcl-2, sequence (P10415 whole entry): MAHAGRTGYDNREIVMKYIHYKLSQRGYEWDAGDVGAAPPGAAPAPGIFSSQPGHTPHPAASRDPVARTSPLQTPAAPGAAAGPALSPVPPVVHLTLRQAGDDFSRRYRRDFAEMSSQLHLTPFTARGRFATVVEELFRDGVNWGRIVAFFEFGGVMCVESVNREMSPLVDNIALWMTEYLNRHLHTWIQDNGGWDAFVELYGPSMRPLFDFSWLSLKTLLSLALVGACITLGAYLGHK
In the next series the target is Bcl-xL (Homo sapiens (Human), UniProt Q07817). The experiment in a line: Fluorescence polarization competitive binding assay, Bcl-xL. Particulars: FP competition with Flu-BAK probe; read-out: Inhibitory activity IC50 Bcl-xL.
Bcl-xL, sequence (Q07817 whole entry): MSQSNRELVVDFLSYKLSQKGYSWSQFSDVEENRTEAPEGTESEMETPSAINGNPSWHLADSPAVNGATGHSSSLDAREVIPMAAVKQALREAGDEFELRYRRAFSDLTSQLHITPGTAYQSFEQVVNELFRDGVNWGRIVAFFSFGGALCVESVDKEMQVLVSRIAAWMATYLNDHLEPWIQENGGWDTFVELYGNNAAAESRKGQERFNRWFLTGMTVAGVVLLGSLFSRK
The target in a further series is Mcl-1 (Homo sapiens (Human), UniProt Q07820). Put plainly: Fluorescence polarization competitive binding assay, Mcl-1. Particulars: FP competition with Flu-BID probe; read-out: Inhibitory activity IC50 Mcl-1.
Mcl-1, sequence (Q07820 whole entry): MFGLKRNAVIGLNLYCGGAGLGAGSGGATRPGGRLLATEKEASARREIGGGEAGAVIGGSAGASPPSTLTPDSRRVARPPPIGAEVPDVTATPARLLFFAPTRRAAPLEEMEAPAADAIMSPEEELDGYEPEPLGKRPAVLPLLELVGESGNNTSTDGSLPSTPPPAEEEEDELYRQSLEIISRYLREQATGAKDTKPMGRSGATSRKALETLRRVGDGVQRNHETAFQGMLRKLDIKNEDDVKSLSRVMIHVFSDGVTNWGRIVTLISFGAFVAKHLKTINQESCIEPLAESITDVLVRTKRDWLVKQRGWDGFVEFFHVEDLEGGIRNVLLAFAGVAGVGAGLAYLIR

Like-named read-outs stand apart in the source and are kept apart here.

Method for Bcl-2: (§1) Fluorescence polarization values were measured using the Infinite M-1000 plate reader (Tecan U.S., Research Triangle Park, N.C.) in Microfluor 1 96-well, black, round-bottom plates (Thermo Scientific). […] Plates were mixed and incubated at room temperature for 1 hour with gentle shaking to assure equilibrium. […] Equilibrium dissociation constants (Kd) were then calculated by fitting the sigmoidal dose-dependent FP increases as a function of protein concentrations using Graphpad Prism 5.0 software (Graphpad Software, San Diego, Calif.).
(§2) Mixtures of 5 μl of the tested inhibitors in DMSO and 120 μl of pre-incubated protein/probe complexes in the assay buffer were added into assay plates and incubated at room temperature for 2 hours with gentle shaking. […] FP values were measured as described above. IC50 values were determined by nonlinear regression fitting of the competition curves.
Method for Bcl-xL: as §1, §2
Method for Mcl-1: as §1, §2

Turning to “2-((1H-pyrrolo[2,3-b]pyridin-5-yl)oxy)-4-(1-((6- (4-chlorophenyl)-2-oxaspiro[3.5]non-6-en-7- yl)methyl)-1,2,3,6-tetrahydropyridin-4-yl)-N-((3- nitro-4-(((tetrahydro-2H-pyran-4- yl)methyl)amino)phenyl)sulfonyl)benzamide [compound 9]”, the IC50 in the series on RS4;11 cells is 28 nM.

For the compound `O=C(NS(=O)(=O)c1ccc(NC[C@H]2COCCO2)c([N+](=O)[O-])c1)c1ccc(N2CCN(CC3=C(c4ccc(Cl)cc4)CC4(CCC4)CC3)CC2)cc1Oc1cnc2[nH]ccc2c1` [Cpd. No. 6, (S)-N-((4-(((1,4-dioxan-2-yl)methyl)amino)-3-nitrophenyl)sulfonyl)-2-((1H-pyrrolo[2,3-b]pyridin-5-yl)oxy)-4-(4-((6-(4-chlorophenyl)spiro[3.5]non-6-en-7-yl)methyl)piperazin-1-yl)benzamide], the “antitumor activity (tumor growth)” value in series [1] (FIG. 3) is recorded as “inhibits tumor growth”. Further, the mouse weight result in series [1] (FIG. 4) is “does not cause weight loss in mice”.

Consider `O=C(NS(=O)(=O)C1=CC2C(C=NN2CC2CCOCC2)C([N+](=O)[O-])=C1)c1ccc(N2CCN(CC3=C(c4ccc(Cl)cc4)CC4(CCC4)CC3)CC2)cc1Oc1cnc2[nH]ccc2c1` (stereo not drawn) [compound 62, 2-((1H-pyrrolo[2,3-b]pyridin-5-yl)oxy)-4-(4-((6-(4-chlorophenyl)spiro[3.5]non-6-en-7-yl)methyl)piperazin-1-yl)-N-((4-nitro-1-((tetrahydro-2H-pyran-4-yl)methyl)-3a,7a-dihydro-1H-indazol-6-yl)sulfonyl)benzamide], for which the IC50 at Bcl-2 was found to be 1.6 nM; on Bcl-xL it was 4 nM; with RS4;11 cells (Homo sapiens, RS4-11, 96 h), 46 nM.

As to “(R)-N-((4-(((1,4-dioxan-2-yl)methyl)amino)-3- nitrophenyl)sulfonyl)-2-((1H-pyrrolo[2,3- b]pyridin-5-yl)oxy)-4-(1-((6-(4-chlorophenyl)-2- oxaspiro[3.5]non-6-en-7-yl)methyl)-1,2,3,6- tetrahydropyridin-4-yl)benzamide [Cpd. No. 5]”, in the series with RS4;11 cells, the IC50 turned out to be 22 nM.

Regarding “(R)-N-((4-(((1,4-dioxan-2-yl)methyl)amino)-3- nitrophenyl)sulfonyl)-2-((1H-pyrrolo[2,3- b]pyridin-5-yl)oxy)-4-(4-((6-(4-chlorophenyl)-2- oxaspiro[3.5]non-6-en-7-yl)methyl)piperazin-1- yl)benzamide [compound 8]”, the values for the IC50 at Mcl-1 and in the series with RS4;11 cells were > 5000 nM and 3.7 nM, respectively.
